Reference: patent US10770169B2, “Method of providing a treatment to a subject based on a dynamic pathway map” (THE REGENTS OF THE UNIVERSITY OF CALIFORNIA, priority 2010, dated 2020)
Entries after “also recorded” stand apart in the source; their conditions may differ.

Legend:
[1] = tested on: panel of 55 breast cancer cell lines; experiment: Cell growth inhibition assay (Cell Titer Glo, 72 h, 9 doses; GI50, TGI, LC50); type: cell-based, human; details: value is the negative log10 of mol/L
[2] = tested on: luminal, basal, claudin-low and ERBB2AMP breast cancer cell lines; experiment: Associations of clinically relevant subtypes and response (non-parametric ANOVA or t-test on GI50 ranks); type: cell-based, human
Method in brief: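 GI50 values were compared between cell-line subtype groups by non-parametric ANOVA or t-test on ranks. P-values from three test sets were combined and FDR-corrected. Significant three-group effects were followed by post-hoc comparison of each group against all others, and FDR p<0.20 counted as significant.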

`O=c1[nH]c2ccccc2n1C1CCN(Cc2ccc(-c3nc4cc5[nH]cnc5cc4nc3-c3ccccc3)cc2)CC1` [Sigma AKT1-2 inhibitor] showed a GI50 ([1]; AU565 cell line, censored GI50 values) of 5.61, a GI50 ([1]; BT20 cell line, censored GI50 values) of 5.00 and a GI50 ([1]; BT474 cell line, censored GI50 values) of 6.08. It also gave a GI50 ([1]; BT483 cell line, censored GI50 values) of 6.08, a GI50 ([1]; CAMA1 cell line, censored GI50 values) of 5.59 and a GI50 ([1]; HCC38 cell line, censored GI50 values) of 4.98. It also gave a GI50 ([1]; HCC70 cell line, censored GI50 values) of 5.74, a GI50 ([1]; HCC1143 cell line, censored GI50 values) of 4.87 and a GI50 ([1]; HCC1187 cell line, censored GI50 values) of 5.47. It also gave a GI50 ([1]; HCC1419 cell line, censored GI50 values) of 6.03, a GI50 ([1]; HCC1428 cell line, censored GI50 values) of 5.35 and a GI50 ([1]; HCC1500 cell line, censored GI50 values) of 4.89. The GI50 ([1]; HCC1806 cell line, censored GI50 values) was 5.05, the GI50 ([1]; HCC1937 cell line, censored GI50 values) was 5.00 and the GI50 ([1]; HCC1954 cell line, censored GI50 values) was 5.08. The GI50 ([1]; HCC2185 cell line, censored GI50 values) was 5.75, the GI50 ([1]; HCC3153 cell line, censored GI50 values) was 4.99 and the GI50 ([1]; LY2 cell line, censored GI50 values) was 5.77. It also gave a GI50 ([1]; MCF7 cell line, censored GI50 values) of 5.78, a GI50 ([1]; MDAMB134VI cell line, censored GI50 values) of 5.02 and a GI50 ([1]; MDAMB175VII cell line, censored GI50 values) of 5.51. It also gave a GI50 ([1]; MDAMB361 cell line, censored GI50 values) of 6.05, a GI50 ([1]; MDAMB415 cell line, censored GI50 values) of 4.95 and a GI50 ([1]; MDAMB436 cell line, censored GI50 values) of 4.47. For the same compound, the GI50 ([1]; MDAMB453 cell line, censored GI50 values) was 5.73, the GI50 ([1]; MDAMB468 cell line, censored GI50 values) was 5.01 and the GI50 ([1]; SKBR3 cell line, censored GI50 values) was 5.68. For the same compound, the GI50 ([1]; SUM52PE cell line, censored GI50 values) was 5.81, the GI50 ([1]; SUM149PT cell line, censored GI50 values) was 5.03 and the GI50 ([1]; SUM159PT cell line, censored GI50 values) was 5.17. It also gave a GI50 ([1]; SUM185PE cell line, censored GI50 values) of 5.95, a GI50 ([1]; SUM225CWN cell line, censored GI50 values) of 6.05 and a GI50 ([1]; SUM1315MO2 cell line, censored GI50 values) of 5.33. It also gave a GI50 ([1]; T47D cell line, censored GI50 values) of 5.78, a GI50 ([1]; UACC812 cell line, censored GI50 values) of 5.53 and a GI50 ([1]; ZR75B cell line, censored GI50 values) of 5.93. It also gave a GI50 ([1]; ZR751 cell line, censored GI50 values) of 5.94, a GI50 ([1]; cell line AU565) of 5.61 and a GI50 ([1]; cell line BT20) of 5.00. For the same compound, the GI50 ([1]; cell line BT474) was 6.08, the GI50 ([1]; cell line BT483) was 6.08 and the GI50 ([1]; cell line CAMA1) was 5.59. The GI50 ([1]; cell line HCC38) was 4.98, the GI50 ([1]; cell line HCC70) was 5.74 and the GI50 ([1]; cell line HCC1143) was 4.87. It also gave a GI50 ([1]; cell line HCC1187) of 5.47, a GI50 ([1]; cell line HCC1419) of 6.03 and a GI50 ([1]; cell line HCC1428) of 5.35. The GI50 ([1]; cell line HCC1500) was 4.89, the GI50 ([1]; cell line HCC1806) was 5.05 and the GI50 ([1]; cell line HCC1937) was 5.00. For the same compound, the GI50 ([1]; cell line HCC1954) was 5.08, the GI50 ([1]; cell line HCC2185) was 5.75 and the GI50 ([1]; cell line HCC3153) was 4.99. The GI50 ([1]; cell line LY2) was 5.77, the GI50 ([1]; cell line MCF7) was 5.78 and the GI50 ([1]; cell line MDAMB134V) was 5.02. It also gave a GI50 ([1]; cell line MDAMB175V) of 5.51, a GI50 ([1]; cell line MDAMB361) of 6.05 and a GI50 ([1]; cell line MDAMB415) of 4.95. The GI50 ([1]; cell line MDAMB436) was 4.47, the GI50 ([1]; cell line MDAMB453) was 5.73 and the GI50 ([1]; cell line MDAMB468) was 5.01. The GI50 ([1]; cell line SKBR3) was 5.68, the GI50 ([1]; cell line SUM52PE) was 5.81 and the GI50 ([1]; cell line SUM149PT) was 5.03. The GI50 ([1]; cell line SUM159PT) was 5.17, the GI50 ([1]; cell line SUM185PE) was 5.95 and the GI50 ([1]; cell line SUM225CWN) was 6.05. It also gave a GI50 ([1]; cell line SUM1315MO) of 5.33, a GI50 ([1]; cell line T47D) of 5.78 and a GI50 ([1]; cell line UACC812) of 5.53. For the same compound, the GI50 ([1]; cell line ZR75B) was 5.93, the GI50 ([1]; cell line ZR751) was 5.94 and the “subtype-specific response (sensitivity by transcriptional subtype)” value ([2]; GI50 across subtypes) was “highest in luminal and ERBB2^AMP and lower in basal and claudin-low breast cancer cell lines; also recorded: Luminal and ERBB2AMP cell lines preferentially respond”. The Subtype specificity ([2]; Table 6, most sensitive subtype, FDR p<0.20) was “Luminal/ERBB2AMP”.
